The record followed here is ChEMBL document CHEMBL4507263, “Data for DCP probe BAY-474” (2021).

Calls of active or inactive are those of the source. No cut-off for these calls is given here.

The target in assay [1] is 5-hydroxytryptamine receptor 2B (Homo sapiens) (UniProt P41595). The following applies: Compound concentration 10.0 uM.
Assay [2] has as its target T1, Muscarinic acetylcholine receptor M2 (Homo sapiens) (UniProt P08172).
T1 sequence (whole entry): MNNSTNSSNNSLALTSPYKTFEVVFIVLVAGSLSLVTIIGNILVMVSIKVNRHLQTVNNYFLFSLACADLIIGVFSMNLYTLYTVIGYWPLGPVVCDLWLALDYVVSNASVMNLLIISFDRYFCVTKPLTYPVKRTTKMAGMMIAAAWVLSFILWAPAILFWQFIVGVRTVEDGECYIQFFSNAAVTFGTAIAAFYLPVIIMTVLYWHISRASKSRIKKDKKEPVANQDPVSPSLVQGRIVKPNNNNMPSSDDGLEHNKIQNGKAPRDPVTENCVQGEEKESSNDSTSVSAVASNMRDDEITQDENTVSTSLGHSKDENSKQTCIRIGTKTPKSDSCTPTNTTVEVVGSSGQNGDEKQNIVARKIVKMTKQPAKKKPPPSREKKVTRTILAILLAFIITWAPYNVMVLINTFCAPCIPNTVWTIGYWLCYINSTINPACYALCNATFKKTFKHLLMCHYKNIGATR
To be noted: Compound concentration 10.0 uM.

Assay [3] addresses Casein kinase I isoform gamma-3 (Homo sapiens) (UniProt Q9Y6M4). In words: CK1gamma3 (h) Millipore kinase activity assay. The following applies: Compound concentration 1.0 uM.
The target of assay [4] is Mitogen-activated protein kinase 11 (Homo sapiens) (UniProt Q15759). In words: SAPK2b (h) Millipore kinase activity assay. The following applies: Compound concentration 1.0 uM.
Assay [5] concerns Hs746T. In words: Cell proliferation with Hs746T cells. It counts as functional. To be noted: Homo sapiens.
The target of assay [6] is Ribosomal protein S6 kinase alpha-5 (Homo sapiens) (UniProt O75582). The experiment in a line: MSK1 (h) Millipore kinase activity assay. The following applies: Compound concentration 1.0 uM.
Ribosomal protein S6 kinase alpha-5 (Homo sapiens), sequence (O75582 whole entry, looked up): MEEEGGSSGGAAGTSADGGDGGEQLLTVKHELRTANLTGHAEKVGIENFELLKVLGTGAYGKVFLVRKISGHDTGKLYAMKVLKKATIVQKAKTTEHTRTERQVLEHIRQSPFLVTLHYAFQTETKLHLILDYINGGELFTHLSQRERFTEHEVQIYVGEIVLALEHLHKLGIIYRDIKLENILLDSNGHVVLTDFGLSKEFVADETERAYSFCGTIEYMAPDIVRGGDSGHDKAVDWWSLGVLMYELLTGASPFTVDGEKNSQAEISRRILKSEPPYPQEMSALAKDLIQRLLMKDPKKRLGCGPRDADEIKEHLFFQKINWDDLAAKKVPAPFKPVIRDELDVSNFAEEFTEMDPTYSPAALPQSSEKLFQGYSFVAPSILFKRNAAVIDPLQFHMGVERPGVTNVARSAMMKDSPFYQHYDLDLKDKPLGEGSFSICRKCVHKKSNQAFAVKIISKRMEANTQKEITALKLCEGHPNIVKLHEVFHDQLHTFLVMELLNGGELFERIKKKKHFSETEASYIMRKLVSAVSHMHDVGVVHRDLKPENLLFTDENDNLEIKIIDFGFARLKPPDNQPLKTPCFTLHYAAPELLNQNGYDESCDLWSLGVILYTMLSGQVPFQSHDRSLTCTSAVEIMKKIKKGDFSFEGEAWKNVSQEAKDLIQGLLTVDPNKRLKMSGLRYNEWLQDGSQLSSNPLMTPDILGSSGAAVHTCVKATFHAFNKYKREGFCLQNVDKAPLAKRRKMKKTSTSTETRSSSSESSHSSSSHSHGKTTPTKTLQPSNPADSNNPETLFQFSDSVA
Assay [7] addresses Serine/threonine-protein kinase 4 (Homo sapiens) (UniProt Q13043). The experiment in a line: MST1 (h) Millipore kinase activity assay. To be noted: Compound concentration 1.0 uM.
For assay [8], the target named is Mitogen-activated protein kinase kinase kinase kinase 2 (Homo sapiens) (UniProt Q12851). The experiment in a line: GCK (h) Millipore kinase activity assay. To be noted: Compound concentration 1.0 uM.
Assay [9] concerns the target Calcium/calmodulin-dependent protein kinase type IV (Homo sapiens) (UniProt Q16566). The experiment in a line: CaMKIV (h) Millipore kinase activity assay. The following applies: Compound concentration 1.0 uM.
For assay [10], the target named is Insulin receptor (Homo sapiens) (UniProt P06213). The experiment in a line: IR (h) Millipore kinase activity assay. To be noted: Compound concentration 1.0 uM.
Assay [11] has as its target Proto-oncogene tyrosine-protein kinase ROS (Homo sapiens) (UniProt P08922). In words: Ros (h) Millipore kinase activity assay. The following applies: Compound concentration 1.0 uM.
The target in assay [12] is Estrogen receptor (Homo sapiens) (UniProt P03372). The following applies: Compound concentration 10.0 uM.
For assay [13], the target named is Neuropeptide Y receptor type 1 (Homo sapiens) (UniProt P25929). In words: Inhibition of Neuropeptide Y Y1 at 10 µM in the Eurofins-Panlabs radioligand binding assay (Eurofins_assay_257010). To be noted: Compound concentration 10.0 uM.
Neuropeptide Y receptor type 1 (Homo sapiens), sequence (P25929 whole entry): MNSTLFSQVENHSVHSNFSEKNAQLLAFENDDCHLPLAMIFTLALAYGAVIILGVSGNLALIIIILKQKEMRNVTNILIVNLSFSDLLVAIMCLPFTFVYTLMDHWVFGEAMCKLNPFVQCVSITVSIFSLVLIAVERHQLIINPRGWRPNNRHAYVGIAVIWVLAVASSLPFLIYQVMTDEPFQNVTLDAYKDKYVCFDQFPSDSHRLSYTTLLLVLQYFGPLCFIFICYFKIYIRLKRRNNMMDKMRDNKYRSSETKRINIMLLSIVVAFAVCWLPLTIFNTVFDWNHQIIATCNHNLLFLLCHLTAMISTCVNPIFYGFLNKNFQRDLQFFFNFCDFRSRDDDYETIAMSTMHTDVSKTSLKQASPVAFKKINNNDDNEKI
Assay [14] addresses Myosin-IIIa (Homo sapiens) (UniProt Q8NEV4). To be noted: Compound concentration 1000.0 nM.
Assay [15] addresses Protein-tyrosine kinase 6 (Homo sapiens) (UniProt Q13882). The following applies: Compound concentration 1000.0 nM.
Assay [16] deals with Serine/threonine-protein kinase Sgk1 (Homo sapiens) (UniProt O00141). To be noted: Compound concentration 1000.0 nM.
For assay [17], the target named is Serine/threonine-protein kinase MAK (Homo sapiens) (UniProt P20794). The following applies: Compound concentration 1000.0 nM.
Serine/threonine-protein kinase MAK (Homo sapiens), sequence (P20794 whole entry): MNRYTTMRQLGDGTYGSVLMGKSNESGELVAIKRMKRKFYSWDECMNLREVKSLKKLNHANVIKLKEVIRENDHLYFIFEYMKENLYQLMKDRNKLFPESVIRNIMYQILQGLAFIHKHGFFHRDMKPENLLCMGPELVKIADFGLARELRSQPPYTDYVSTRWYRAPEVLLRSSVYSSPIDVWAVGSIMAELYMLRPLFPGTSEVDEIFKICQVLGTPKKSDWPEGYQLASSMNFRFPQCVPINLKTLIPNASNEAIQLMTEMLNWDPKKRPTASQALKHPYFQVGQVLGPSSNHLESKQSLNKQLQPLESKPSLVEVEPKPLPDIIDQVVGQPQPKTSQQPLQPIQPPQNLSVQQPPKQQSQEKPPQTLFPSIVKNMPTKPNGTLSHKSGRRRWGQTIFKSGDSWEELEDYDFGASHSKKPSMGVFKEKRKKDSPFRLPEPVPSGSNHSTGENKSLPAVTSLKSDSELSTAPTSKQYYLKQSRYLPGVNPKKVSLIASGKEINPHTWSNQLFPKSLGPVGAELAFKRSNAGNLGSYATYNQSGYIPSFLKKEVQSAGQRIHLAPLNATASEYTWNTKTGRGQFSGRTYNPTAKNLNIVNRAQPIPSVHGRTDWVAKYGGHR
Assay [18] has as its system Receptor-type tyrosine-protein kinase FLT3 (Homo sapiens), P36888 [UNDEFINED MUTATION]. The following applies: Compound concentration 1000.0 nM.
Assay [19] concerns the target Receptor-type tyrosine-protein kinase FLT3 (Homo sapiens) (UniProt P36888). To be noted: Compound concentration 1000.0 nM.
For assay [20], the target named is cAMP-dependent protein kinase catalytic subunit beta (Homo sapiens) (UniProt P22694). The following applies: Compound concentration 1000.0 nM.
In assay [21] the target is Citron Rho-interacting kinase (Homo sapiens) (UniProt O14578). To be noted: Compound concentration 1000.0 nM.
Assay [22] addresses Serine/threonine-protein kinase 17A (Homo sapiens) (UniProt Q9UEE5). To be noted: Compound concentration 1000.0 nM.
In assay [23] the target is Hormonally up-regulated neu tumor-associated kinase (Homo sapiens) (UniProt P57058). To be noted: Compound concentration 1000.0 nM.
The target of assay [24] is Serine/threonine-protein kinase PLK4 (Homo sapiens) (UniProt O00444). To be noted: Compound concentration 1000.0 nM.
The target in assay [25] is Insulin receptor-related protein (Homo sapiens) (UniProt P14616). The following applies: Compound concentration 1000.0 nM.
The target of assay [26] is Serine/threonine-protein kinase haspin (Homo sapiens) (UniProt Q8TF76). To be noted: Compound concentration 1000.0 nM.
Assay [27] concerns the target RAC-alpha serine/threonine-protein kinase (Homo sapiens) (UniProt P31749). To be noted: Compound concentration 1000.0 nM.
The target in assay [28] is Cyclin-dependent kinase-like 1 (Homo sapiens) (UniProt Q00532). The following applies: Compound concentration 1000.0 nM.
Cyclin-dependent kinase-like 1 (Homo sapiens), sequence (Q00532 whole entry): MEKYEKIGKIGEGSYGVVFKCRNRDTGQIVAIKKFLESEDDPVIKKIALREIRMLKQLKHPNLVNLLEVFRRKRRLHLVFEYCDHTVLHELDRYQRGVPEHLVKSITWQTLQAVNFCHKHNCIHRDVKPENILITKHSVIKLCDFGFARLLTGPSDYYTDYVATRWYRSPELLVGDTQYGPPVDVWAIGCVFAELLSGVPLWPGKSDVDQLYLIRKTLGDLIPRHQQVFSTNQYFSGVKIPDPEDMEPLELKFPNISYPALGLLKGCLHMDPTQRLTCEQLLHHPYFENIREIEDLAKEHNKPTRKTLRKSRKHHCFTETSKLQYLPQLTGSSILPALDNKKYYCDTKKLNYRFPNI
Assay [29] addresses Cyclin-dependent kinase 13 (Homo sapiens) (UniProt Q14004). The following applies: Compound concentration 1000.0 nM.
Assay [30] addresses Myosin light chain kinase (Homo sapiens) (UniProt Q32MK0). To be noted: Compound concentration 1000.0 nM.
The target of assay [31] is Rho-associated protein kinase 1 (Homo sapiens) (UniProt Q13464). To be noted: Compound concentration 1000.0 nM.
Rho-associated protein kinase 1 (Homo sapiens), sequence (Q13464 2-1354 limits assumed): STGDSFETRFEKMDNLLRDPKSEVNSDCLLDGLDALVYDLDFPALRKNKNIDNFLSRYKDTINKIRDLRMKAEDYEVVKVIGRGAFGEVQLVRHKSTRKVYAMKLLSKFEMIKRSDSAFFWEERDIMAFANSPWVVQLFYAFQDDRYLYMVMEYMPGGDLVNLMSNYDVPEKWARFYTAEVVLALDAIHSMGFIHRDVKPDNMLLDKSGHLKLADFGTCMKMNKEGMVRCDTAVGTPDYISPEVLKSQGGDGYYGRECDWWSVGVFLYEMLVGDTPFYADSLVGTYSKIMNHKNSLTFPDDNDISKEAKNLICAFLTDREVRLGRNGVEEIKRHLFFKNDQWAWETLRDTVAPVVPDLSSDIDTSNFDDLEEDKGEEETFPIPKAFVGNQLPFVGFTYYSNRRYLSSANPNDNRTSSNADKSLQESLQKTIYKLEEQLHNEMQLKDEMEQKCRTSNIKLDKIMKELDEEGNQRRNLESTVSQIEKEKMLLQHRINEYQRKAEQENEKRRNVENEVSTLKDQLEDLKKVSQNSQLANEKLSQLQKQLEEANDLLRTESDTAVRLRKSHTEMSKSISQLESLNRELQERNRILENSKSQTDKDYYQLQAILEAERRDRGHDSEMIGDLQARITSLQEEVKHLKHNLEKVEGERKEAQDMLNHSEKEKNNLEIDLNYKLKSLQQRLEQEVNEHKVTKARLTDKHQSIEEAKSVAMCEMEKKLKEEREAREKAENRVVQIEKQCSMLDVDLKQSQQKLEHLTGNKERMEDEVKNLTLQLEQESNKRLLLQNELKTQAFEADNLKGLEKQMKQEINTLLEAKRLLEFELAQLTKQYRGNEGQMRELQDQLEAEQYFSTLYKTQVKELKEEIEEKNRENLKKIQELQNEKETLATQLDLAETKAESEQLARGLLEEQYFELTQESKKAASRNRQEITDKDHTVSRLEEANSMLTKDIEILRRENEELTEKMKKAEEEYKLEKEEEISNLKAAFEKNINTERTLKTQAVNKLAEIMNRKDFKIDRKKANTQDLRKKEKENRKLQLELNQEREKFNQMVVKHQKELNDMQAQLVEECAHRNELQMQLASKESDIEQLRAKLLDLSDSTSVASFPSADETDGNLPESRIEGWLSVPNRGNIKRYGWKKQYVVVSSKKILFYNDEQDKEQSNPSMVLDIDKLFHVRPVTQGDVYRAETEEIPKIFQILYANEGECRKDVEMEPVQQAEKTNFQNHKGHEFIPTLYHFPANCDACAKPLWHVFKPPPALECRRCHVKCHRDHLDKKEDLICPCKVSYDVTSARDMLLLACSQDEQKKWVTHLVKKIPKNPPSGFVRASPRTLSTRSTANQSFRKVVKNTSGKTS
Assay [32] deals with Serine/threonine-protein kinase PLK3 (Homo sapiens) (UniProt Q9H4B4). To be noted: Compound concentration 1000.0 nM.
In assay [33] the target is Receptor tyrosine-protein kinase erbB-3 (Homo sapiens) (UniProt P21860). The following applies: Compound concentration 1000.0 nM.
The target in assay [34] is Angiopoietin-1 receptor (Homo sapiens) (UniProt Q02763). The following applies: Compound concentration 1000.0 nM.
Angiopoietin-1 receptor (Homo sapiens), sequence (Q02763 whole entry): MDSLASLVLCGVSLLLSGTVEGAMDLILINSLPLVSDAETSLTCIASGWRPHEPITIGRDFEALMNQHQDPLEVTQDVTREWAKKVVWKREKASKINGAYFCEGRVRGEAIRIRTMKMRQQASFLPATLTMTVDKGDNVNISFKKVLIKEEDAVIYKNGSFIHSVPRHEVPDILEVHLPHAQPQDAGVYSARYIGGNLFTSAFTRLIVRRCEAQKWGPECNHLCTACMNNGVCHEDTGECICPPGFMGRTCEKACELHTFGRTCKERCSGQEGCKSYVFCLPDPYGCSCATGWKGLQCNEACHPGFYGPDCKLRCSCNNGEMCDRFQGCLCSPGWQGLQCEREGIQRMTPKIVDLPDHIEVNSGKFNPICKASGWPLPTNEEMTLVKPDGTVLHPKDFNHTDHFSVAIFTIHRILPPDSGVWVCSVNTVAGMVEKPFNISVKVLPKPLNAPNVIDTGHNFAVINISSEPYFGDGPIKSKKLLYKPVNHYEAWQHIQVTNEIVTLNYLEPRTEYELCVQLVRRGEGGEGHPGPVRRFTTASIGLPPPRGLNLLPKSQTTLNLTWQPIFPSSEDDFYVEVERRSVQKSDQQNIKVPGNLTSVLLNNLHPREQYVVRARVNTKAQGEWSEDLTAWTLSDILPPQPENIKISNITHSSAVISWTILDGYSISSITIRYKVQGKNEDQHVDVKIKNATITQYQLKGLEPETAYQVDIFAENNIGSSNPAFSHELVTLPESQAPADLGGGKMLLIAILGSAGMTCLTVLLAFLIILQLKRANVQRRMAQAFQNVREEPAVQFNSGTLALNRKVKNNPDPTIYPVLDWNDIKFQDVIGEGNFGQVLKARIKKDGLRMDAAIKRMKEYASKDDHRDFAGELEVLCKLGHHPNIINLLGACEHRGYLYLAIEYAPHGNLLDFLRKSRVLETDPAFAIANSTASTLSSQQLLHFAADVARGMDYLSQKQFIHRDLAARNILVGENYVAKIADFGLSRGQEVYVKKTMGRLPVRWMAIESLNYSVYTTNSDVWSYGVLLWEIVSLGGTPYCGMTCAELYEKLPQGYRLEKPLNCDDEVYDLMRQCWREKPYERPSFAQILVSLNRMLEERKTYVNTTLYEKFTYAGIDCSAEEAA
The target of assay [35] is Fibroblast growth factor receptor 4 (Homo sapiens) (UniProt P22455). The following applies: Compound concentration 1000.0 nM.
Assay [36] concerns the target Casein kinase I isoform alpha-like (Homo sapiens) (UniProt Q8N752). The following applies: Compound concentration 1000.0 nM.
Assay [37] concerns the target Dual specificity protein kinase CLK3 (Homo sapiens) (UniProt P49761). To be noted: Compound concentration 1000.0 nM.
In assay [38] the target is Serine/threonine-protein kinase pim-2 (Homo sapiens) (UniProt Q9P1W9). The following applies: Compound concentration 1000.0 nM.
Serine/threonine-protein kinase pim-2 (Homo sapiens), sequence (Q9P1W9 whole entry, looked up): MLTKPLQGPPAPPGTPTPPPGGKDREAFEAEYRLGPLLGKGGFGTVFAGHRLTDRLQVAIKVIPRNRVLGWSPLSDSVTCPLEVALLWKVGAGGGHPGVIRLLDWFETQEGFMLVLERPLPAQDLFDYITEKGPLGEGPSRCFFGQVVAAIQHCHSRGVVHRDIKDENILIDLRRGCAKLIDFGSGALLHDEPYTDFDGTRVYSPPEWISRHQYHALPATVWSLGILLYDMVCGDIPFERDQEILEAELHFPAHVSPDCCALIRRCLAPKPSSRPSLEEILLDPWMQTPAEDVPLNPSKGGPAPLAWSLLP
Assay [39] has as its target Glycogen synthase kinase-3 alpha (Homo sapiens) (UniProt P49840). To be noted: Compound concentration 1000.0 nM.
Assay [40] concerns the target Serine/threonine-protein kinase 24 (Homo sapiens) (UniProt Q9Y6E0). The following applies: Compound concentration 1000.0 nM.

Turning to `CC1=C(C#N)C(c2ccc3[nH]nc(C)c3c2)C(C#N)=C(C)N1` [BAY-474], the inhibition (commonly the relative decrease from the control value, in per cent) in [1] is 4%; in [2], 0%; in assay [3] it was 21%; in [4] it was -10%; in assay [6], -1%; in assay [7] it was 19%. Moreover, the inhibition is 1% in assay [8]; -1% in [9]; -9% in assay [10]; 25% in assay [11]; 2% in assay [12]; 1% in assay [13]. The IC90 (in general, the concentration at which the effect reaches the 90% level) in [5] is 56 nM (active).

`CC1=C(C#N)[C@@H](c2ccc3[nH]nc(C)c3c2)C(C#N)=C(c2ccc(Cl)cc2)N1` [BAY-827]: the residual activity (usually the share of the control activity or signal that is left under treatment) in [14] was 100%; in [15], 100%; in assay [16], 100%; in [17], 85.1%; in assay [18], 100%; in [19], 100%. The residual activity was 81.5% in assay [20]; 100% in assay [21]; 100% in [22]; 81.4% in [23]; 100% in [24]; 100% in assay [25]. In addition, the residual activity in assay [26] was 100%; in [27], 100%; in assay [28], 77.1%; in [29], 86.6%; in [30], 100%; in assay [31], 68.5%. Besides, the residual activity was 77.5% in assay [32]; 63.9% in [33]; 74.5% in [34]; 100% in assay [35]; 100% in [36]; 100% in assay [37]. Further, the residual activity in assay [38], in [39] and in [40] was 100% each time.
